pEC50: −log10 of the molar value.
What was measured:
human mGlu1 = target: T1, human mGlu1 (Homo sapiens, UniProt Q13255); assay: mGlu1 calcium mobilization (triple-add) PAM assay; type: cell-based
T1 construct: expressed in transfected cells; pcDNA5/TO)
Protocol: Tetracycline-inducible human mGlu1 WT-T-REx-293 cells (Wu et al, Science 2014) were cultured at 37 °C in Dulbecco’s Modified Eagle Medium (DMEM) growth medium containing 10% Tet-tested FBS, 2 mM L-glutamine, 20 mM HEPES, 0.1 mM nonessential amino acids, 1 mM sodium pyruvate, antibiotic/antimycotic, 100 μg/mL hygromycin and 5 μg/mL blasticidin in the presence of 5% CO2. […] The mutant stable cell lines were generated in the same manner as the WT as previously described and cultured in the growth medium described above.
To determine the potency of mGlu1 PAMs in calcium assays, Ca flux was measured as previously described in ACS Chem. Bio. 2014, 9, 2334–2346. Briefly, the day before the assay, human mGlu1 WT-T-REx-293 cells were plated in black-walled, clear-bottomed, poly-D-lysine coated 96-well plates at 80,000 cells/100 μL assay medium (DMEM supplemented with 10% dialyzed FBS, 20 mM HEPES, and 1 mM sodium pyruvate) containing 50 ng/mL of tetracycline to induce mGlu1 expression. The next day, media was removed and the cells were incubated with 50 μL of 1.15 μM Fluo-4 AM dye solution prepared in assay buffer (buffer (Hank’s balanced salt solution, 20 mM HEPES, and 2.5 mM probenecid) for 45 min at 37 °C, the dye was removed and replaced with 45 μL of assay buffer. Then, calcium flux was measured using Flexstation II (Molecular Devices, Sunnyvale, CA). Compounds serially diluted at half log concentrations in DMSO were further diluted in assay buffer. The compounds or DMSO vehicle were added to cells and incubated for 2.5 min and an EC20 concentration of glutamate was added and incubated for 1 min. An ECmax concentration of glutamate was also added to cells that were incubated with DMSO vehicle to accurately calculate the EC20 calcium response. Data were normalized by subtracting the basal florescent peak before EC20 agonist addition from the maximal peak elicited by EC20 agonist and PAMs. Using GraphPad Prism 5.0, the concentration response curves were generated and the potencies of the mGlu1 PAMs were determined.

rat mGlu1 = rat mGlu1 (Rattus norvegicus, UniProt P23385); assay: mGlu1 calcium mobilization PAM assay; type: cell-based; conditions: PAM, calcium flux
Sequence of rat mGlu1 (P23385 19-1199): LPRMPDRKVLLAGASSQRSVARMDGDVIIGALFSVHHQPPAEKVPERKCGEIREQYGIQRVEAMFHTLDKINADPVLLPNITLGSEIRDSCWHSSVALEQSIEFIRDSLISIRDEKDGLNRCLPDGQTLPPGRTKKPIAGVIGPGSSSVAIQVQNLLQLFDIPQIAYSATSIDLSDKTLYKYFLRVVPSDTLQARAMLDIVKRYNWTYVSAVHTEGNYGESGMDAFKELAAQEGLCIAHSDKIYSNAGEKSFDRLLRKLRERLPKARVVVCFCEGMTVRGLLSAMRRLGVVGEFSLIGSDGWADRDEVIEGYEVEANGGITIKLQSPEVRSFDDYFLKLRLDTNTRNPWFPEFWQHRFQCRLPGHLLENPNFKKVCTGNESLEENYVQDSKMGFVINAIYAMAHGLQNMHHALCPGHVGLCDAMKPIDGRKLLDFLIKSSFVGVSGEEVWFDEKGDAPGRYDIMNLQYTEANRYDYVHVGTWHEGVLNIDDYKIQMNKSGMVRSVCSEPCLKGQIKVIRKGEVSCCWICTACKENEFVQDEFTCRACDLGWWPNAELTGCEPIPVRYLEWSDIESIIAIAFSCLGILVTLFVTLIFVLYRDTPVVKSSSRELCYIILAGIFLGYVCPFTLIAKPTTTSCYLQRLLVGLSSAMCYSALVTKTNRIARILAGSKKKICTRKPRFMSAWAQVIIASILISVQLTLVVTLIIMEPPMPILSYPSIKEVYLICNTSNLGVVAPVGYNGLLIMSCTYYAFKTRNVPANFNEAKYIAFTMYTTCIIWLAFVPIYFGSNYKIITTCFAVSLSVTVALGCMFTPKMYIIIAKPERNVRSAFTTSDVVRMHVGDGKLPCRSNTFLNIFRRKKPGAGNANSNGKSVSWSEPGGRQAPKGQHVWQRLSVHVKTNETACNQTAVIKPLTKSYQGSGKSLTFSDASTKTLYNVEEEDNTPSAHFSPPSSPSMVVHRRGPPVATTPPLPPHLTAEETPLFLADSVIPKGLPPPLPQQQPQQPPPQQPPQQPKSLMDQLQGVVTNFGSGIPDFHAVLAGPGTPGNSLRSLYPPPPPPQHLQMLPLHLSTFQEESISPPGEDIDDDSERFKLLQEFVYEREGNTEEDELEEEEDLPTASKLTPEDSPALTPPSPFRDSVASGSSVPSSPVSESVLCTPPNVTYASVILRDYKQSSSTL

[1] = plasma protein binding, equilibrium dialysis; type: in vitro ADME, rat; conditions: fraction unbound
Protocol: (§1) The protein binding of each compound was determined in plasma via equilibrium dialysis employing RED Plates (ThermoFisher Scientific, Rochester, NY). Plasma was added to the 96 well plate containing test compound and mixed thoroughly for a final concentration of 5 μM. Subsequently, an aliquot of the plasma-compound mixture was transferred to the cis chamber (red) of the RED plate, with an phosphate buffer (25 mM, pH 7.4) in the trans chamber. The RED plate was sealed and incubated for 4 h at 37 °C with shaking. At completion, aliquots from each chamber were diluted 1:1 with either plasma (cis) or buffer (trans) and transferred to a new 96 well plate, at which time ice-cold acetonitrile containing internal standard (50 ng/mL carbamazepine) (2 volumes) was added to extract the matrices. The plate was centrifuged (3000 rcf, 10 min) and supernatants transferred and diluted 1:1 (supernatant: water) into a new 96 well plate, which was then sealed in preparation for LC/MS/MS analysis. Each compound was assayed in triplicate within the same 96-well plate. Fraction unbound was determined using the following equation [drawing 1]

[2] = plasma protein binding, equilibrium dialysis; type: in vitro ADME, human; conditions: fraction unbound
Protocol: as §1

[3] = intrinsic clearance, predicted hepatic clearance; type: in vitro ADME, human; conditions: in vitro predicted hepatic clearance
Protocol: (§2) Human or rat hepatic microsomes (0.5 mg/mL) and 1 μM test compound were incubated in 100 mM potassium phosphate pH 7.4 buffer with 3 mM MgCl2 at 37 °C with constant shaking. After a 5 min preincubation, the reaction was initiated by addition of NADPH (1 mM). At selected time intervals (0, 3, 7, 15, 25, and 45 min), aliquots were taken and subsequently placed into a 96-well plate containing cold acetonitrile with internal standard (50 ng/mL carbamazepine). Plates were then centrifuged at 3000 rcf (4 °C) for 10 min, and the supernatant was transferred to a separate 96-well plate and diluted 1:1 with water for LC/MS/MS analysis. The in vitro half-life (T1/2, min, eq 1), intrinsic clearance (CLint, mL/min/kg, eq 2) and subsequent predicted hepatic clearance (CLhep, mL/min/kg, eq 3) was determined employing the following equations: [drawing 2] 1 where k represents the slope from linear regression analysis of the natural log percent remaining of test compound as a function of incubation time [drawing 3] 2
(§3) ^ascale-up factors: of 20 (human) or 45 (rat) [drawing 4] 3 where Qh (hepatic blood flow, mL/min/kg) is 21 (human) or 70 (rat).

[4] = intrinsic clearance, predicted hepatic clearance; type: in vitro ADME, rat; conditions: in vitro predicted hepatic clearance
Protocol: as §2, §3

brain homogenate binding = type: in vitro ADME, rat; conditions: fraction unbound
[5] = PAM, calcium flux, EC20 glutamate

T1 sequence (Q13255 19-1194): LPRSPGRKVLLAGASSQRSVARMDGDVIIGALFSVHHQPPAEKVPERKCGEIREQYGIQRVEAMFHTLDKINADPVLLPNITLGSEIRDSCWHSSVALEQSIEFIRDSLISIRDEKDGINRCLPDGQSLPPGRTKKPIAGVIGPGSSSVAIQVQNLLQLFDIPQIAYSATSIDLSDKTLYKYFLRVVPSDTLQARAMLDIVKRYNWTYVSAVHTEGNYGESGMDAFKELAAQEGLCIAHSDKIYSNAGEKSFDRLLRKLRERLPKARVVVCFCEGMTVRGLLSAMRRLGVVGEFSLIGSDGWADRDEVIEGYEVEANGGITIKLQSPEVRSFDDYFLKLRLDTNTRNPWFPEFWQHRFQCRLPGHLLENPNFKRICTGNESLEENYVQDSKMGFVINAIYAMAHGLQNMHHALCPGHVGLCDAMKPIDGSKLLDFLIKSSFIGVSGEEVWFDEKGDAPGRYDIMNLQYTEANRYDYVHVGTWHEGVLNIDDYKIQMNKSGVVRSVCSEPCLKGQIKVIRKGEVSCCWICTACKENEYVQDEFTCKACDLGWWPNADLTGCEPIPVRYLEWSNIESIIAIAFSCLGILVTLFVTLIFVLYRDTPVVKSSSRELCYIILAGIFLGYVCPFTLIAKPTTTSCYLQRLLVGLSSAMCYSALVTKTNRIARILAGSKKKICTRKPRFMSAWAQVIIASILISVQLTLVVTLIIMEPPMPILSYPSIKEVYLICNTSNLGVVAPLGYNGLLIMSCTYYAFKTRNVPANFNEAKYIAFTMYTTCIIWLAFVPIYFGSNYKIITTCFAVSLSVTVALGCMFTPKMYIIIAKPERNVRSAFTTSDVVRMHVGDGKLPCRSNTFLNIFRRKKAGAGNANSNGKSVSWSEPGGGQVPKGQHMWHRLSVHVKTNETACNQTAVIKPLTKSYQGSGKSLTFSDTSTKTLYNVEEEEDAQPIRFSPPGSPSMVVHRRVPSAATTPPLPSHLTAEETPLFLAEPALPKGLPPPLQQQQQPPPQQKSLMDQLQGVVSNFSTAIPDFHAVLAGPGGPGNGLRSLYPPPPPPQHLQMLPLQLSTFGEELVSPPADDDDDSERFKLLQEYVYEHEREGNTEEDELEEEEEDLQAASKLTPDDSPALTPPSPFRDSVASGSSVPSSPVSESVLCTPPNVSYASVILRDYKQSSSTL

| pEC50 (human mGlu1; [5]) | human mGlu1 Glumax (human mGlu1; [5]) | improvement in mGlu1 PAM potency over HTS hit 6 (human mGlu1; human mGlu1 EC50 ratio) | pEC50 (rat mGlu1) | rat mGlu1 Glumax (rat mGlu1) | human mGlu1 EC50 (Glumax), result in words (human mGlu1; [5]) | rat fuplasma [1] | human fuplasma [2] | CLhep, human [3] | CLhep, rat [4] | rat fubrain (brain homogenate binding) | Structure (SMILES) |
| --- | --- | --- | --- | --- | --- | --- | --- | --- | --- | --- | --- |
| < 5.00 | 71% |  |  |  |  |  |  |  |  |  | COc1ccc(Cl)cc1C(=O)NCc1cnn2ccccc12 [Compound 6, 5-Chloro-2-methoxy-N-(pyrazolo[1,5-a]pyridin-3-ylmethyl)benzamide] |
| 5.29 | 45% |  |  |  |  |  |  |  |  |  | COc1ccc(OC)c(C(=O)NCc2cnn3ccccc23)c1 [Compound 9a, 2,5-Dimethoxy-N-(pyrazolo[1,5-a]pyridin-3-ylmethyl)benzamide] |
| 5.13 | 62% |  |  |  |  |  |  |  |  |  | COc1ccc(C)cc1C(=O)NCc1cnn2ccccc12 [Compound 9b, 2-Methoxy-5-methyl-N-(pyrazolo[1,5-a]pyridin-3-ylmethyl)benzamide] |
| 5.22 | 47% |  |  |  |  |  |  |  |  |  | Cc1ccc(Cl)cc1C(=O)NCc1cnn2ccccc12 [Compound 9c, 5-Chloro-2-methyl-N-(pyrazolo[1,5-a]pyridin-3-ylmethyl)benzamide] |
| 5.42 | 46% | ~3 fold |  |  |  |  |  |  |  |  | O=C(NCc1cnn2ccccc12)c1cc(Cl)ccc1Cl [Compound 9d, 2,5-Dichloro-N-(pyrazolo[1,5-a]pyridin-3-ylmethyl)benzamide] |
| 6.36 | 33% |  | 6.00 | 48% |  |  |  |  |  |  | O=C(NCc1cnn2ccccc12)c1cc(-c2ccccc2)ccc1Cl [Compound 9f, 4-Chloro-N-(pyrazolo[1,5-a]pyridin-3-ylmethyl)-[1,1′-biphenyl]-3-carboxamide] |
| 6.54 | 51% |  | 6.43 | 75% |  |  |  |  |  |  | O=C(NCc1cnn2ccccc12)c1cc(-c2cccs2)ccc1Cl [Compound 9g, 2-Chloro-N-(pyrazolo[1,5-a]pyridin-3-ylmethyl)-5-(thiophen-2-yl)benzamide] |
| 6.19 | 35% |  |  |  |  |  |  |  |  |  | O=C(NCc1cnn2ccccc12)c1cc(-c2ccsc2)ccc1Cl [Compound 9h, 2-Chloro-N-(pyrazolo[1,5-a]pyridin-3-ylmethyl)-5-(thiophen-3-yl)benzamide] |
| 6.10 | 61% |  | 5.50 | 79% |  |  |  |  |  |  | O=C(NCc1cnn2ccccc12)c1cc(-c2nccs2)ccc1Cl [Compound 9i, 2-Chloro-N-(pyrazolo[1,5-a]pyridin-3-ylmethyl)-5-(thiazol-2-yl)benzamide] |
|  |  |  |  |  | Inactive |  |  |  |  |  | Cn1nccc1-c1ccc(Cl)c(C(=O)NCc2cnn3ccccc23)c1 [Compound 9j, 2-Chloro-5-(1-methyl-1H-pyrazol-5-yl)-N-(pyrazolo[1,5-a]pyridin-3-ylmethyl)benzamide] |
| 6.68 | 96% |  |  |  |  | 0.009 | 0.001 | 19.4 mL/min/kg | 60.9 mL/min/kg |  | O=C(NCc1cc(-c2ccccc2)no1)c1cc(-c2ccco2)ccc1Cl [Compound 15a, 2-Chloro-5-(furan-2-yl)-N-((3-phenylisoxazol-5-yl)methyl)benzamide] |
| 7.41 | 56% |  | 7.21 | 106% |  | 0.004 | 0.001 | 19.9 mL/min/kg | 61.8 mL/min/kg | 0.005 | O=C(NCc1noc(-c2ccccc2)n1)c1cc(-c2ccco2)ccc1Cl [Compound 15b, 2-Chloro-5-(furan-2-yl)-N-((5-phenyl-1,2,4-oxadiazol-3-yl)methyl)benzamide] |
| 5.00 | 44% |  |  |  |  |  |  |  |  |  | O=C(NCc1noc(C2CC2)n1)c1cc(-c2ccco2)ccc1Cl [Compound 15c, 2-Chloro-N-((5-cyclopropyl-1,2,4-oxadiazol-3-yl)methyl)-5-(furan-2-yl)benzamide] |
| 6.15 | 80% |  | 6.29 | 95% |  |  |  |  |  |  | O=C(NCc1nc(C2CC2)no1)c1cc(-c2ccco2)ccc1Cl [Compound 15d, 2-Chloro-N-((3-cyclopropyl-1,2,4-oxadiazol-5-yl)methyl)-5-(furan-2-yl)benzamide] |
| 7.02 | 71% |  | 6.52 | 51% |  | 0.003 | 0.001 | 19.7 mL/min/kg | 57.4 mL/min/kg | 0.002 | O=C(NCc1cnc(-c2cccs2)s1)c1cc(-c2ccco2)ccc1Cl [Compound 15e, 2-Chloro-5-(furan-2-yl)-N-((2-(thiophen-2-yl)thiazol-5-yl)methyl)benzamide] |
| 6.73 | 60% |  | 6.55 | 74% |  | 0.025 | 0.036 | 20.3 mL/min/kg | 57.1 mL/min/kg | 0.019 | Cn1nc(C(F)(F)F)cc1CNC(=O)c1cc(-c2ccco2)ccc1Cl [Compound 15f, 2-Chloro-5-(furan-2-yl)-N-((1-methyl-3-(trifluoromethyl)-1H-pyrazol-5-yl)methyl)benzamide] |
| 7.25 | 69% |  | 7.70 | 109% |  | 0.002 | 0.002 | 19.0 mL/min/kg | 54.8 mL/min/kg | 0.003 | Cn1nc(-c2cccs2)cc1CNC(=O)c1cc(-c2ccco2)ccc1Cl [Compound 19a, 2-Chloro-5-(furan-2-yl)-N-((1-methyl-3-(thiophen-2-yl)-1H-pyrazol-5-yl)methyl)benzamide] |
| 6.71 | 85% |  | 6.88 | 116% |  | 0.002 | 0.002 | 18.6 mL/min/kg | 56.4 mL/min/kg | 0.003 | Cn1nc(-c2ccccc2F)cc1CNC(=O)c1cc(-c2ccco2)ccc1Cl [Compound 19b, 2-Chloro-N-((3-(2-fluorophenyl)-1-methyl-1H-pyrazol-5-yl)methyl)-5-(furan-2-yl)benzamide] |
| 7.13 | 60% |  | 6.91 | 116% |  | 0.015 | 0.023 | 18.8 mL/min/kg | 51.7 mL/min/kg | 0.021 | Cn1nc(-c2cccnc2)cc1CNC(=O)c1cc(-c2ccco2)ccc1Cl [Compound 19c, 2-Chloro-5-(furan-2-yl)-N-((1-methyl-3-(pyridin-3-yl)-1H-pyrazol-5-yl)methyl)benzamide] |
